ChEMBL document CHEMBL1770110, “Pyrimido[4,5-d]azepines as potent and selective 5-HT2C receptor agonists: design, synthesis, and evaluation of PF-3246799 as a treatment for urinary incontinence” (Bioorg Med Chem Lett, 2011)
pEC50, pKi: −log10 of the molar value. Calls of active or inactive are those of the source. No cut-off for these calls is given here.

Assays:
[1] = target: T1, 5-hydroxytryptamine receptor 2B (Homo sapiens, UniProt P41595); test: Agonist activity at human 5HT2B receptor expressed in CHO-K1 cells assessed as increase of fluorescence based calcium mobilization by FLIPR assay; assay type: functional, cell-based
T1 sequence (P41595 whole entry): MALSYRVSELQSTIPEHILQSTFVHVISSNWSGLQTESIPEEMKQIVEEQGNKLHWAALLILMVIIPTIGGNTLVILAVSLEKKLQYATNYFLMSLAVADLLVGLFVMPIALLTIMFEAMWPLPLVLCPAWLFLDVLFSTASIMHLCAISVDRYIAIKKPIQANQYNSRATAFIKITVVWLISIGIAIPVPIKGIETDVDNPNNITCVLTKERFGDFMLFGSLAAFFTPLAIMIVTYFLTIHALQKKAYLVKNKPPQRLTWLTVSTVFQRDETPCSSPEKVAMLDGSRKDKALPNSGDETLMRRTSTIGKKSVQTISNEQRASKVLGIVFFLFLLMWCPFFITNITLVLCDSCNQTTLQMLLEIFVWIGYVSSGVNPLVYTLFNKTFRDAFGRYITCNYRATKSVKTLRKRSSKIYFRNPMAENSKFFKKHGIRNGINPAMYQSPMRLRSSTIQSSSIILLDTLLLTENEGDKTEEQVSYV

[2] = target: T2, 5-hydroxytryptamine receptor 2C (Homo sapiens) (UniProt P28335); test: Agonist activity at human 5HT2C receptor expressed in CHO-K1 cells assessed as increase of fluorescence based calcium mobilization by FLIPR assay relative to control; assay type: functional, cell-based
T2 sequence (whole entry): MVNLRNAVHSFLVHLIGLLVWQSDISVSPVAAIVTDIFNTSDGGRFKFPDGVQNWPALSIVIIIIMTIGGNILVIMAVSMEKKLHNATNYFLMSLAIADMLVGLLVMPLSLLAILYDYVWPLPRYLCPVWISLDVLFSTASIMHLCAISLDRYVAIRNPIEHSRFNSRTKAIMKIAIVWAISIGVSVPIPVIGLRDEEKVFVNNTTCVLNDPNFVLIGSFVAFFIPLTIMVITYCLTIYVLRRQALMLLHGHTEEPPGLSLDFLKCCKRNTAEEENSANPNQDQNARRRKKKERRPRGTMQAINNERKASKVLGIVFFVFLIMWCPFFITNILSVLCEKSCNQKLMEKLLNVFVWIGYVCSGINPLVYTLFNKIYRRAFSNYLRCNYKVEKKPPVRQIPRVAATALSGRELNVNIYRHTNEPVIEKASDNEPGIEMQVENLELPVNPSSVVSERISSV

[3] = target: T1, 5-hydroxytryptamine receptor 2B; test: Agonist activity at human 5HT2B receptor expressed in CHO-K1 cells assessed as increase of fluorescence based calcium mobilization by FLIPR assay relative to control; assay type: functional, cell-based
[4] = target: T3, 5-hydroxytryptamine receptor 2C (Homo sapiens, UniProt P28335); test: Agonist activity at human 5HT2C receptor expressed in CHO-K1 cells assessed as increase of fluorescence based calcium mobilization by FLIPR assay; assay type: functional, cell-based
T3 sequence (P28335 whole entry): T2 sequence (whole entry)

[5] = target: T1, 5-hydroxytryptamine receptor 2B; test: Agonist activity at human 5HT2B receptor expressed in CHO-K1 cells assessed as increase of fluorescence based calcium mobilization at 10 uM by FLIPR assay relative to control; assay type: functional, cell-based
[6] = target: T2, 5-hydroxytryptamine receptor 2C (Homo sapiens); test: Agonist activity at human 5HT2C receptor expressed in CHO-K1 cells assessed as increase of fluorescence based calcium mobilization at 10 uM by FLIPR assay relative to control; assay type: functional, cell-based
[7] = target: T3, 5-hydroxytryptamine receptor 2C; test: Displacement of [3H][…] from human 5HT2C receptor expressed in Swiss mouse 3T3 cells by scintillation proximity assay; assay type: cell-based, NIH3T3
[8] = Aqueous solubility of the compound at pH 1.5 to 11.7; assay type: physicochemical; details: buffer
[9] = Chemical stability of compound at pH 1 to 12; assay type: physicochemical; details: buffer

SMILES	pEC50 [1]	Emax [2] [%]	Emax [3] [%]	further results
Fc1ccc(Cc2ncc3c(n2)CCNCC3)cc1	6.21	60	90	
FC(F)(F)c1ccccc1Cc1ncc2c(n1)CCNCC2				Emax [5]: 15%; Emax [6]: 15%
c1ccc(CCCc2ncc3c(n2)CNCC3)cc1				Activity [2]: inactive
O=C(O)/C=C/C(=O)O.c1ccc(Cc2ncc3c(n2)CCNCC3)cc1				solubility [8]: > 10000 µg/mL; Stability [9]: Stable
FC(F)(F)c1cccc(Cc2ncc3c(n2)CCNCC3)c1	6.80	44	63	
Clc1cccc(Cc2ncc3c(n2)CCNCC3)c1	7.52	56	50	
c1ccc(-c2ncc3c(n2)CNCC3)cc1		92		pEC50 [4]: 6.42
c1ccc(CCc2ncc3c(n2)CNCC3)cc1				Activity [2]: inactive

Further lines, with some results ahead:

pEC50 [1]	Emax [2] [%]	Emax [3] [%]	SMILES	further results
7.22	65	62	Clc1ccc(Cc2ncc3c(n2)CCNCC3)cc1	
	100		c1ccc(CCCc2ncc3c(n2)CCNC3)cc1	pEC50 [4]: 5.72
6.75		36	Clc1ccccc1Cc1ncc2c(n1)CCNCC2	pKi [7]: 5.73; Emax [6]: 38%
6.74	67	66	Fc1cccc(Cc2ncc3c(n2)CCNCC3)c1	
5.92	70	56	Cc1ccccc1Cc1ncc2c(n1)CCNCC2	
